Details: 101.33 kPa, Liquid crystal of unknown type; for speed of sound: Sing-around technique in a fixed-path interferometer; for mass density: Vibrating tube method

CCCCCCCC/C=C\CCCCCCCC(=O)[O-].OCC[NH2+]CCO [bis(2-hydroxyethyl)ammonium oleate]
Details	mass density [kg/m3]	speed of sound [m/s]
278.14 K	978.16	1601.5
278.39 K	977.996	1600.3
278.64 K	977.834	1599.2
278.89 K	977.67	1598.1
279.14 K	977.506	1596.9
279.39 K	977.342	1595.7
279.64 K	977.177	1594.6
279.89 K	977.017	1593.5
280.15 K	976.852	1592.3
280.4 K	976.689	1591.2
280.65 K	976.525	1590.1
280.89 K	976.361	1589
281.15 K	976.197	1587.9
281.4 K	976.035	1586.8
281.65 K	975.87	1585.7
281.9 K	975.706	1584.6
282.15 K	975.544	1583.5
282.4 K	975.38	1582.5
282.65 K	975.217	1581.4
282.9 K	975.053	1580.3
283.15 K	974.89	1579.3
283.4 K	974.726	1578.2
283.65 K	974.562	1577.2
283.9 K	974.401	1576.2
284.15 K	974.236	1575.1
284.4 K	974.073	1574
284.65 K	973.91	1573
284.9 K	973.745	1572
285.15 K	973.584	1571
285.4 K	973.419	1569.9
285.65 K	973.258	1568.9
285.9 K	973.092	1567.9
286.15 K	972.93	1566.9
286.4 K	972.766	1565.8
286.65 K	972.604	1564.8
286.9 K	972.442	1563.8
287.15 K	972.275	1562.8
287.4 K	972.113	1561.8
287.65 K	971.951	1560.8
287.9 K	971.788	1559.8
288.15 K	971.625	1558.8
288.4 K	971.46	1557.8
288.65 K	971.299	1556.7
288.9 K	971.135	1555.8
289.15 K	970.972	1554.8
289.4 K	970.811	1553.8
289.65 K	970.645	1552.8
289.9 K	970.483	1551.8
290.15 K	970.32	1550.8
290.4 K	970.158	1549.8
290.65 K	969.995	1548.9
290.9 K	969.831	1547.9
291.15 K	969.668	1546.9
291.4 K	969.506	1545.9
291.65 K	969.343	1544.9
291.9 K	969.18	1543.8
292.15 K	969.016	1542.7
292.4 K	968.854	1541.7
292.65 K	968.691	1540.8
292.9 K	968.527	1539.8
293.15 K	968.365	1538.9
293.4 K	968.202	1538
293.65 K	968.039	1537.1
293.9 K	967.876	1536.2
294.15 K	967.713	1535.3
294.4 K	967.548	1534.4
294.65 K	967.388	1533.5
294.91 K	967.225	1532.7
295.15 K	967.061	1531.8
295.4 K	966.898	1530.9
295.66 K	966.735	1530
295.91 K	966.572	1529.1
296.16 K	966.408	1528.3
296.4 K	966.246	1527.4
296.66 K	966.084	1526.5
296.91 K	965.921	1525.6
297.16 K	965.758	1524.8
297.41 K	965.595	1523.9
297.66 K	965.433	1523
297.91 K	965.27	1522.2
298.16 K	965.108	1521.3
298.41 K	964.945	1520.5
298.66 K	964.781	1519.6
298.9 K	964.619	1518.8
299.15 K	964.457	1517.9
299.4 K	964.294	1517.1
299.66 K	964.132	–
299.91 K	963.968	1515.4
300.16 K	963.805	1514.5
300.4 K	963.642	1513.7
300.66 K	963.481	1512.8
300.9 K	963.318	1512
301.16 K	963.154	1511.2
301.41 K	962.991	1510.3
301.66 K	962.83	1509.5
301.91 K	962.666	1508.7
302.16 K	962.503	1507.8
302.41 K	962.341	1507
302.66 K	962.178	1506.1
302.91 K	962.013	1505.3
303.16 K	961.853	1504.5
303.41 K	961.689	1503.6
303.66 K	961.527	1502.8
303.91 K	961.364	1502
304.16 K	961.2	1501.2
304.41 K	961.038	1500.3
304.66 K	960.875	1499.5
304.91 K	960.712	1498.7
305.16 K	960.55	1497.9
305.41 K	960.387	1497
305.66 K	960.223	1496.2
305.91 K	960.061	1495.4
306.16 K	959.898	1494.6
306.4 K	959.736	1493.8
306.65 K	959.573	1493
306.91 K	959.409	1492.1
307.16 K	959.246	1491.3
307.41 K	959.083	1490.5
307.66 K	958.92	1489.7
307.91 K	958.759	1488.9
308.16 K	958.595	1488.1
308.4 K	958.43	1487.3
308.65 K	958.268	1486.5
308.91 K	958.105	1485.7
309.16 K	957.942	1484.9
309.4 K	957.779	1484.1
309.66 K	957.617	1483.3
309.91 K	957.453	1482.5
310.16 K	957.289	1481.7
310.41 K	957.128	1480.9
310.66 K	956.963	1480.1
